Here are results for 23 compounds from patent US10035760B2, “Inhibitors of human immunodeficiency virus replication” (priority 2013, dated 2018).

The test system of the experiment is recombinant NL4-3 virus (Renilla luciferase) in MT-2 cells. Put plainly: HIV cell culture assay (antiviral activity, luciferase readout in infected MT-2 cells). The format is cell-based. To be noted: Renilla. The procedure:
HIV cell culture assay—MT-2 cells, 293T cells and the proviral DNA clone of NL4-3 virus were obtained from the NIH AIDS Research and Reference Reagent Program. MT-2 cells were propagated in RPMI 1640 media supplemented with 10% heat inactivated fetal bovine serum (FBS), 100 ug/ml penicillin G and up to 100 units/ml streptomycin. The 293T cells were propagated in DMEM media supplemented with 10% heat inactivated FBS, 100 ug/ml penicillin G and 100 ug/ml streptomycin. A recombinant NL4-3 proviral clone, in which a section of the nef gene was replaced with the Renilla luciferase gene, was used to make the reference virus used in these studies. The recombinant virus was prepared through transfection of the recombinant NL4-3 proviral clone into 293T cells using Transit-293 Transfection Reagent from Mirus Bio LLC (Madison, Wis.). Supernatent was harvested after 2-3 days after transfection, and the amount of virus present was titered in MT-2 cells using luciferase enzyme activity as a marker. Luciferase activity was quantitated using the EnduRen Live Cell Substrate from Promega (Madison, Wis.). Antiviral activities of compounds toward the recombinant virus were quantified by measuring luciferase activity in MT-2 cells infected for 4-5 days with the recombinant virus in the presence of serial dilutions of the compound.
The 50% effective concentration (EC50) was calculated by using the exponential form of the median effect equation where (Fa)=1/[1+(ED50/drug conc.)^m](Johnson V A, Byington R T. Infectivity Assay. In Techniques in HIV Research. ed. Aldovini A, Walker B D. 71-76. New York: Stockton Press. 1990).

The mark [1] stands for this setting: NL43, read-out: Activity, antiviral activity class, recombinant NL4-3 Renilla luciferase virus in MT-2 cells.
Where [2] appears, read: NL43, recombinant NL4-3 Renilla luciferase virus in MT-2 cells.

Where two headings read alike, the source gives them in different places. Bounds are passed on as bounds.

With `Cc1ccccc1S(=O)(=O)NC(=O)N[C@@H](Cc1ccccc1)C(=O)N(C)c1ccc(F)cc1` [Example 169, (S)—N-(4-fluorophenyl)-N-methyl-3-phenyl-2-(3-(o-tolylsulfonyl)ureido)propanamide], under setting [1], the EC50 was in the range of 100 to 1000 nM.
Still for that read-out and setting: to `COc1ccccc1N(C)C(=O)[C@H](Cc1ccccc1)NC(=O)NS(=O)(=O)c1ccccc1` [Example 95, (S)—N-(2-methoxyphenyl)-N-methyl-3-phenyl-2-(3 (phenylsulfonyl)ureido)-propanamide] belongs 1000 to 10000 nM; to `Cc1ccccc1S(=O)(=O)NC(=O)N[C@@H](Cc1ccccc1)C(=O)N(C)c1ccc2c(c1)CCO2` [Example CA-76, (S)—N-(2,3-dihydrobenzofuran-5-yl)-N-methyl-3-phenyl-2-(3-(o-tolylsulfonyl)ureido)propanamide], less than 100 nM.
In the case of `CC(C)CS(=O)(=O)NC(=O)N[C@@H](Cc1ccccc1)C(=O)N(C)c1ccc2c(c1)OCO2` [Example 45, (S)—N-(benzo[d][1,3]dioxol-5-yl)-2-(3-(isobutylsulfonyl)ureido)-N-methyl-3-phenylpropanamide], under setting [1], the EC50 lay within 100 to 1000 nM.
Turning to `Cc1ccccc1S(=O)(=O)NC(=O)N[C@@H](Cc1cc(F)cc(F)c1)C(=O)N(C)c1cc2ccccc2cn1` [Example CA-105, (S)-3-(3,5-difluorophenyl)-N-(isoquinolin-3-yl)-N-methyl-2-(3-(o-tolylsulfonyl)ureido)propanamide], under setting [1], the EC50 was 100 to 1000 nM.
Take `Cc1ccccc1S(=O)(=O)NC(=O)N[C@@H](Cc1ccccc1)C(=O)N(C)c1ccc2c(c1)CCCO2` [Example CA-79, (S)—N-(chroman-6-yl)-N-methyl-3-phenyl-2-(3-(o-tolylsulfonyl)ureido)propanamide]: under setting [1], the EC50 was less than 100 nM.
In the case of `CN(C(=O)[C@H](Cc1ccccc1)NC(=O)NS(=O)(=O)c1ccccc1)c1ccc2c(c1)CCC2` [Example 208, (S)—N-(2,3-dihydro-1H-inden-5-yl)-N-methyl-3-phenyl-2-(3-(phenylsulfonyl)ureido)propanamide], the EC50 under setting [1] lay within 100 to 1000 nM.
For the compound `Cc1ccccc1S(=O)(=O)NC(=O)N[C@@H](Cc1ccccc1)C(=O)N1CCC1` [Example 188, (S)—N-((1-(azetidin-1-yl)-1-oxo-3-phenylpropan-2-yl)carbamoyl)-2-methylbenzenesulfonamide], the EC50 is 10000 to 100000 nM under setting [1] and 27500 nM under setting [2].
Regarding `Cc1ccccc1S(=O)(=O)NC(=O)N[C@@H](Cc1ccccc1)C(=O)N(C)c1ccc2c(c1)OC(F)(F)O2` [Example 37, (S)—N-(2,2-difluorobenzo[d][1,3]dioxol-5-yl)-N-methyl-3-phenyl-2-(3-(o-tolylsulfonyl)ureido)propanamide], the EC50 under setting [1] is 100 to 1000 nM.
With `Cc1ccccc1S(=O)(=O)NC(=O)N[C@@H](Cc1ccccc1)C(=O)N(C)c1ccc2cc[nH]c(=O)c2c1` [Example CA-99, (S)—N-methyl-N-(1-oxo-1,2-dihydroisoquinolin-7-yl)-3-phenyl-2-(3-(o-tolylsulfonyl)ureido)propanamide], under setting [1], the EC50 lay in the range of 1000 to 10000 nM.
Consider `CCCc1cccc(S(=O)(=O)NC(=O)N[C@@H](Cc2ccccc2)C(=O)N(CC)c2ccc(OC)cc2)c1` [Example 142, (S)—N-ethyl-N-(4-methoxyphenyl)-3-phenyl-2-(3-((3-propylphenyl)sulfonyl)ureido)propanamide], for which the EC50 reads like this: under setting [1], less than 100 nM; under setting [2], 60 nM.
Consider `Cc1ccc(S(=O)(=O)NC(=O)N[C@@H](Cc2ccccc2)C(=O)N(C)c2ccc3c(c2)OCO3)cc1` [Example 5, (S)—N-(benzo[d][1,3]dioxol-5-yl)-N-methyl-3-phenyl-2-(3-tosylureido)propanamide], for which, under setting [1], the EC50 fell in the range of 100 to 1000 nM.
Consider `CN(C(=O)[C@H](Cc1ccccc1)NC(=O)NS(=O)(=O)c1ccc([N+](=O)[O-])cc1)c1ccc2c(c1)OCO2` [Example 21, (S)—N-(benzo[d][1,3]dioxol-5-yl)-N-methyl-2-(3-((4-nitrophenyl)sulfonyl)ureido)-3-phenylpropanamide], for which the EC50 under setting [1] is 1000 to 10000 nM.
Consider `CN(C(=O)[C@H](Cc1ccccc1)NC(=O)NS(=O)(=O)c1ccccc1)c1ccc2c(c1)OC(F)(F)O2` [Example 36, (S)—N-(2,2-difluorobenzo[d][1,3]dioxol-5-yl)-N-methyl-3-phenyl-2-(3-(phenylsulfonyl)ureido)propanamide], for which the EC50 under setting [1] lay in the range of 1000 to 10000 nM.
Still for that read-out and setting: the result for `Cc1ccccc1S(=O)(=O)NC(=O)N[C@@H](Cc1ccccc1)C(=O)N(C)c1ccc(NC(=O)N(C)C)cc1` [Example CA-92, (S)—N-(4-(3,3-dimethylureido)phenyl)-N-methyl-3-phenyl-2-(3-(o-tolylsulfonyl)ureido)propanamide] reads 1000 to 10000 nM; that for `Cc1ccccc1S(=O)(=O)NC(=O)N[C@@H](Cc1cc(F)cc(F)c1)C(=O)N(C)c1ccc2c(c1)OC(F)(F)O2` [Example 40, (S)—N-(2,2-difluorobenzo[d][1,3]dioxol-5-yl)-3-(3,5-difluorophenyl)-N-methyl-2-(3-(o-tolylsulfonyl)ureido)propanamide], 100 to 1000 nM; that for `CC(C)S(=O)(=O)NC(=O)N[C@@H](Cc1ccccc1)C(=O)N(C)c1ccc2c(c1)OCO2` [Example 43, (S)—N-(benzo[d][1,3]dioxol-5-yl)-2-(3-(isopropylsulfonyl)ureido)-N-methyl-3-phenylpropanamide], 100 to 1000 nM.
`CCN(C(=O)[C@H](Cc1ccccc1)NC(=O)NS(=O)(=O)c1ccccc1C)c1ccc(OC(F)(F)F)cc1` [Example 178, (S)—N-ethyl-3-phenyl-2-(3-(o-tolylsulfonyl)ureido)-N-(4-(trifluoromethoxy)phenyl)propanamide]: the EC50 runs as follows: under setting [1], less than 100 nM; under setting [2], 80 nM.
`CN(C(=O)[C@H](Cc1ccccc1)NC(=O)NS(=O)(=O)c1ccc(Cl)cc1)c1ccc2c(c1)OCO2` [Example 6, (S)—N-(benzo[d][1,3]dioxol-5-yl)-2-(3-((4-chlorophenyl)sulfonyl)ureido)-N-methyl-3-phenylpropanamide]: the EC50 under setting [1] was in the range of 100 to 1000 nM.
Consider `CN(C(=O)[C@H](Cc1ccccc1)NC(=O)NS(=O)(=O)Cc1ccc(C(F)(F)F)cc1)c1ccc2c(c1)OCO2` [Example 105, (S)—N-(benzo[d][1,3]dioxol-5-yl)-N-methyl-3-phenyl-2-(3-((4-(trifluoromethyl)benzyl)sulfonyl)ureido)propanamide], for which the EC50 under setting [1] lay within 100 to 1000 nM.
Still for that read-out and setting: the result for `COc1ccc(-c2ccccc2S(=O)(=O)NC(=O)N[C@@H](Cc2ccccc2)C(=O)N(C)c2ccc3c(c2)OCO3)cn1` [Example 126, (S)—N-(benzo[d][1,3]dioxol-5-yl)-2-(3-((2-(6-methoxypyridin-3-yl)phenyl)sulfonyl)ureido)-N-methyl-3-phenylpropanamide] reads 10000 to 100000 nM.
Take `Cc1ccc(C[C@H](NC(=O)NS(=O)(=O)c2ccccc2C)C(=O)N(C)c2ccc3c(c2)OCO3)cc1` [Example 72, (S)—N-(benzo[d][1,3]dioxol-5-yl)-N-methyl-3-(p-tolyl)-2-(3-(o-tolylsulfonyl)ureido)propanamide]: the EC50 is 100 to 1000 nM under setting [1] and 580 nM under setting [2].
Take `CCc1ccccc1S(=O)(=O)NC(=O)N[C@@H](Cc1ccccc1)C(=O)N(C)c1ccc2c(c1)OCO2` [Example 146, (S)—N-(benzo[d][1,3]dioxol-5-yl)-2-(3-((2-ethylphenyl)sulfonyl)ureido)-N-methyl-3-phenylpropanamide]: the EC50 under setting [1] was less than 100 nM.
